{
  "source": "ChEMBL document CHEMBL1141855",
  "about": "“Trypargine alkaloids from a previously undescribed Eudistoma sp. ascidian” (J Nat Prod, 1999)",
  "assay": "Toxicity in iv dosed mouse",
  "type": "organism-based",
  "settings": "in vivo",
  "data": [
    {"smiles": "N=C(N)NCCCC1NCCc2c1[nH]c1ccccc21", "note": "(stereo unspecified) [TRYPARGINE]", "values": [
      {"measurement": "LD50", "value": 16.9, "unit": "mg/kg"}
    ]}
  ]
}
